The values that follow come from patent publication US8148423B2, “Fluorophore compounds” (Versitech Limited, priority 2008, dated 2012).

The nature of data set [1]: Fluorescence spectra and quantum yield of rhodol fluorophores, rhodamine 6G as reference. The settings on record: 50 mM aqueous phosphate buffer at pH about 8.0, N.D. = no fluorescence detected; for QY (quantum yield): relative to rhodamine 6G (QY = 0.76 in water). The format is physicochemical. How it is done:
(§1) The photophysical properties of the rhodol fluorophores in Table 1 were measured according to the procedures disclosed herein and are summarized in Table 1. Stock solutions were prepared by accurately weighting and dissolving about 5-10 mg of the rhodol fluorophores in Table 1 in acetonitrile (CH3CN). Absorbance solutions were prepared by further diluting the stock solution with 50 mM of potassium phosphate buffer at pH 8.0. Absorption spectra were recorded on a CARY 50 Bio UV-Visible spectrophotometer (obtainable from Varian Incorporation, Palo Alto, Calif.) under the control of a PC running the manufacturer supplied software package. Spectra were routinely acquired at 25° C., in 1 cm path length quartz cuvettes with a volume of 3.5 mL. Fluorescence spectra were recorded on a Hitachi F-2500 spectrofluorimeter (obtainable from Hitachi, Japan) under the control of a PC running the manufacturer supplied software package. Slit width was 2.5 nm for both the excitation spectrum and the fluorescence spectrum, and the photomultiplier voltage was […]. All spectra were corrected for emission intensity using the manufacturer-supplied photomultiplier curves. The quantum yields of the fluorophores may be estimated by comparison of the integrated area of the corrected emission spectrum of the sample with that of a reference solution, such as a solution of rhodamine 6 G in water (quantum efficiency 0.76). The concentration of the reference was adjusted to match the absorbance of the test sample.

Data set [2] can be described thus: Absorption spectra of rhodol fluorophores in phosphate buffer. The settings on record: for εmax: 50 mM aqueous phosphate buffer at pH about 8.0; for Abs Max: 50 mM aqueous phosphate buffer at pH about 8.0, 25° C. The format is physicochemical. How it is done:
as §1

With `CCCCNc1ccc2c(c1)Oc1cc(O)ccc1C21OC(=O)c2ccccc21` (centres unmarked) [A=H, R1=H, R2=n-Bu], in data set [1], the “Em Max” value worked out at 533 nm and the “QY (quantum yield)” value was determined as 0.90. Besides, in data set [2], the εmax was 60,000 cm^−1M^−1 and the “Abs Max” value was 508 nm.
`COc1ccc2c(c1)Oc1cc(N)ccc1C21OC(=O)c2ccccc21` (centres unmarked) [A=Me, R1=H, R2=H]: in data set [1], the “Em Max” value is recorded as 516 nm and the “QY (quantum yield)” value came out at 0.85. In addition, in data set [2], the “Abs Max” value amounted to 477 nm.
On to `Nc1ccc2c(c1)Oc1cc(O)ccc1C21OC(=O)c2ccccc21` (centres unmarked) [A=H, R1=H, R2=H], for which, in data set [1], the “Em Max” value was 516 nm and the “QY (quantum yield)” value was determined as 0.98. Moreover, in data set [2], the εmax is recorded as ~70,000 cm^−1M^−1 and the “Abs Max” value is 493 nm.
Consider `COCOc1ccc2c(c1)Oc1cc(NC(=O)c3ccccc3)ccc1C21OC(=O)c2ccccc21` (centres unmarked) [A=MOM, R1=H, R2=COPh], for which, in data set [2], the “Abs Max” value was found to be 293 nm.
For the compound `CCCNc1ccc2c(c1)Oc1cc(OCOC)ccc1C21OC(=O)c2ccccc21` (centres unmarked) [A=MOM, R1=H, R2=n-Pr], in data set [1], the “Em Max” value stood at 532 nm and the “QY (quantum yield)” value turned out to be 0.35. Further, in data set [2], the “Abs Max” value is on record as 494 nm.
As to `CCCNc1ccc2c(c1)Oc1cc(O)ccc1C21OC(=O)c2ccccc21` (centres unmarked) [A=H, R1=H, R2=n-Pr], in data set [1], the “Em Max” value was determined as 531 nm and the “QY (quantum yield)” value amounted to 0.94. For the same compound, in data set [2], the εmax is given as 61,000 cm^−1M^−1 and the “Abs Max” value is 507 nm.
The like results for `CCN(CC)c1ccc2c(c1)Oc1cc(O)ccc1C21OC(=O)c2ccccc21` (centres unmarked) [A=H, R1=Et, R2=Et] were, in that order, 549 nm, 0.08, 47,000 cm^−1M^−1 and 522 nm.
In the case of `O=C1OC2(c3ccc(O)cc3Oc3cc(Nc4ccccc4)ccc32)c2ccccc21` (centres unmarked) [A=H, R1=H, R2=Ph], in data set [2], the εmax is 55,000 cm^−1M^−1 and the “Abs Max” value is given as 513 nm.
As for `O=C1OC2(c3ccc(O)cc3Oc3cc(N4CCCCC4)ccc32)c2ccccc21` (centres unmarked) [A=H, R1R2=CH2CH2CH2CH2CH2], in data set [1], the “Em Max” value turned out to be 555 nm and the “QY (quantum yield)” value is listed as 0.03. Besides, in data set [2], the εmax is listed as 62,500 cm^−1M^−1 and the “Abs Max” value amounted to 523 nm.
Consider `C=CC(=O)Nc1ccc2c(c1)Oc1cc(O)ccc1C21OC(=O)c2ccccc21` (centres unmarked) [A=H, R1=H, R2=COCHCH2], for which, in data set [1], the “Em Max” value was found to be 524 nm and the “QY (quantum yield)” value is listed as 0.19. Also, the “Abs Max” value in data set [2] is recorded as 462/490.
As for `CCCCN(CCCC)c1ccc2c(c1)Oc1cc(O)ccc1C21OC(=O)c2ccccc21` (centres unmarked) [A=H, R1=n-Bu, R2=n-Bu], in data set [1], the “Em Max” value is 553 nm and the “QY (quantum yield)” value was 0.12. For the same compound, in data set [2], the εmax is reported as 63,000 cm^−1M^−1 and the “Abs Max” value is 525 nm.
As to `O=C1OC2(c3ccc(O)cc3Oc3cc(NCc4ccccc4)ccc32)c2ccccc21` (centres unmarked) [A=H, R1=H, R2=Bn], in data set [1], the “Em Max” value stood at 529 nm and the “QY (quantum yield)” value was 0.95. Moreover, in data set [2], the εmax is 71,000 cm^−1M^−1 and the “Abs Max” value is 503 nm.
In the case of `O=C(Nc1ccc2c(c1)Oc1cc(O)ccc1C21OC(=O)c2ccccc21)c1ccccc1` (centres unmarked) [A=H, R1=H, R2=COPh], in data set [1], the “Em Max” value is recorded as 525 nm and the “QY (quantum yield)” value is given as 0.16. Besides, the “Abs Max” value in data set [2] was 462/490.
In the case of `CN(C)c1ccc2c(c1)Oc1cc(O)ccc1C21OC(=O)c2ccccc21` (centres unmarked) [A=H, R1=Me, R2=Me], in data set [1], the “Em Max” value is recorded as 544 nm and the “QY (quantum yield)” value is 0.20. Also, in data set [2], the εmax is reported as 64,000 cm^−1M^−1 and the “Abs Max” value was determined as 518 nm.
